Read-outs that look alike come from different tables or passages of the source.
Molecular target: Ghrelin receptor (Homo sapiens, UniProt Q92847)
Assay: Receptor Selection and Amplification Technology (R-SAT) assay
Assay type: cell-based
Design: expressed in transfected cells; host or cells: NIH3T3
Settings: for IC50: negative logarithm of ligand concentration causing 50% inhibition of constitutive receptor response, transfected NIH3T3 cells, '—' not defined (nd used separately), read-out: RSAT pIC50 (converted); for Emax: read-out: RSAT Eff(%)
[1] = percent inhibition at saturating ligand, normalized to reference ligand Substance P analog = 100%

Chain of Ghrelin receptor (Q92847 whole entry): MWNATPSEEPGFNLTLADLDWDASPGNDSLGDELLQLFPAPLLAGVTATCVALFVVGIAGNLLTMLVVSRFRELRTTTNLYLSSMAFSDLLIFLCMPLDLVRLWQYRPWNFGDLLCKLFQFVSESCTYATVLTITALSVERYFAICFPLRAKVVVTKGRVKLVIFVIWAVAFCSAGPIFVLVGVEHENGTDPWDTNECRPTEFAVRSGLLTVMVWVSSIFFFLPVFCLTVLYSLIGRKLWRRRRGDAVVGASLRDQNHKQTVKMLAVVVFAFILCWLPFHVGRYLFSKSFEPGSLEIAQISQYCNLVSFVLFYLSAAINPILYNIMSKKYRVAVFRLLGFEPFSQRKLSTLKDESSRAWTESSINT

| Compound | IC50 [µM] | Emax [1] [%] | Emax [%] |
| --- | --- | --- | --- |
| CC(=O)c1cn(CCCN2C3CCC2CC(OCC2CC2)C3)c2cc(Br)ccc12 (stereo not drawn) | 0.501 | 130 | – |
| CC(=O)c1cn(CCCN2C3CCC2CC(CC(=O)c2ccc(Cl)cc2)C3)c2c(Cl)cccc12 (stereo not drawn) | 0.501 | 41 | – |
| COc1cccc2c(C(C)=O)cn(CCCN3CCN(CC4CCCO4)CC3)c12 (stereo not drawn) | 0.631 | 98 | – |
| CCCOC1CCN(CC(C)Cn2cc(C(C)=O)c3ccccc32)CC1 (stereo not drawn) | 0.631 | 74 | – |
| CC(=O)c1cn(CCCN2CCC(c3nc(-c4cccnc4)no3)CC2)c2c(Cl)cccc12 | 0.631 | 101 | – |
| CCCCC1CCN(CCCn2cc(C(C)=O)c3ccc(OC)cc32)CC1 | 0.631 | 63 | – |
| COc1ccc2c(c1)c(C(C)=O)cn2CCCN1CCC(Oc2ccc(F)cc2)CC1 | 0.631 | 58 | – |
| CCCCC1CCN(CCCn2cc(CCC(C)=O)c3ccccc32)CC1 | 0.631 | 76 | – |
| CC(=O)c1cn(CCCN2CCN(CCOc3ccccc3)CC2)c2ncccc12 | 0.631 | 81 | – |
| CC(=O)c1cn(CCCN2C3CCC2CC(Oc2ccccc2Cl)C3)c2c(C)cccc12 (stereo not drawn) | 0.794 | 101 | – |
| CCCCC(=O)c1cn(CCCN2CCC(C(=O)c3ccccc3)CC2)c2ccc(OC)cc12 | 0.794 | – | 98 |
| CC(=O)c1cn(CC(C)CN2CCN(C(C)c3ccccc3)CC2)c2ccccc12 (stereo not drawn) | 1 | 35 | – |
| COc1ccc2[nH]c3c(c2c1)CCN(CCCn1cc(C(=O)CC(C)C)c2ccccc21)C3 | 1 | – | 123 |
| COc1cccc2c(C(C)=O)cn(CCCN3CCC4CCCCC4C3)c12 (stereo not drawn) | 1 | 69 | – |
| CC(=O)c1cn(CCCN2CCCC(Oc3ccc(Cl)cc3)C2)c2c(Br)cccc12 (stereo not drawn) | 1.26 | 46 | – |
| CC(=O)CCc1cn(CCCN2CCC(Oc3ccc(F)cc3)CC2)c2ccccc12 | 1.26 | 80 | – |
| COc1ccc2c(c1)c(C(C)=O)cn2CCCN1C2CCC1CC(Oc1ccc(Cl)cc1)C2 (stereo not drawn) | 1.26 | 105 | – |
| CCCOC1CCN(CCCn2cc(C(C)=O)c3ccc(OC)cc32)CC1 | 1.26 | 61 | – |
| CC(=O)c1cn(CCCN2CCC(Oc3ccc(Cl)cc3)CC2)c2cc(Br)ccc12 | 1.26 | 74 | – |

| Compound | IC50 [µM] | Emax [1] [%] | Emax [%] |
| --- | --- | --- | --- |
| CC(=O)c1c(C)n(CCCN2CCN(CCOc3ccccc3)CC2)c2c(Br)cccc12 | 1.26 | 57 | – |
| CC(=O)c1cn(CCCN2CCN(C(C)c3ccccc3)CC2)c2ccc(Br)cc12 (stereo not drawn) | 1.26 | 72 | – |
| O=C(c1cn(CCCN2CCC(Oc3ccc(Cl)cc3)CC2)c2ccccc12)C(F)(F)F | 1.58 | 77 | – |
| CCCCC1CCN(CC(C)Cn2c(=O)sc3ccccc32)CC1 (stereo not drawn) | 2 | 84 | – |
| CCCCC1CCN(CC(C)Cn2cc(C(C)=O)c3ccccc32)CC1 (stereo not drawn) | 2 | 76 | – |
| CC(=O)CCc1cn(CCCN2CCN(C(C)c3ccccc3)CC2)c2ccccc12 (stereo not drawn) | 2 | 46 | – |
| CC(=O)c1cn(CCCN2CCC(Oc3ccc(Cl)cc3)CC2)c2c(Cl)cccc12 | 2 | 107 | – |
| CCCOC1CCN(CC(C)Cn2c(=O)sc3ccccc32)CC1 (stereo not drawn) | 2.51 | 71 | – |
| COc1cccc2c(C(C)=O)cn(CCCN3CCC(N(C)C(C)=O)C3)c12 (stereo not drawn) | 2.51 | 60 | – |
| CCC(=O)c1cn(CCCN2C3CCC2CC(OCC2CC2)C3)c2ccccc12 (stereo not drawn) | 2.51 | 120 | – |
| CC(=O)c1cn(CCCN2CCC(Oc3ccc(F)cc3)CC2)c2cc(Br)ccc12 | 2.51 | 64 | – |
| CC(=O)c1cn(CCN2C3CCC2CC(O)(c2ccc(F)cc2)C3)c2ccccc12 (stereo not drawn) | 2.51 | -11 | – |
| COc1ccc2[nH]c3c(c2c1)CCN(CCCn1cc(C(=O)C(F)(F)F)c2ccccc21)C3 | 2.51 | 106 | – |
| CC(=O)c1cn(CCCCN2C3CCC2CC(Oc2ccc(Cl)cc2)C3)c2ccccc12 (stereo not drawn) | 3.16 | 119 | – |
| CCCCC1CCN(CCCn2cc(C(C)=O)c3ccc(Br)cc32)CC1 | 3.16 | 93 | – |
| CC(=O)c1cn(CC(O)CN2CCC(Oc3ccc(Cl)cc3)CC2)c2ccccc12 (stereo not drawn) | 3.16 | 73 | – |
| CC(=O)CCc1cn(CCCN2C3CCC2CC(OCC2CC2)C3)c2ccccc12 (stereo not drawn) | 3.16 | 103 | – |
| O=C(c1cn(CCCN2CCC(O)(Cc3ccccc3)CC2)c2ccccc12)C(F)(F)F | 3.98 | 111 | – |

More lines, main results first:

| IC50 [µM] | Emax [1] [%] | Compound | Emax [%] |
| --- | --- | --- | --- |
| 0.501 | 103 | COc1ccccc1C1CCN(CCCn2cc(C(C)=O)c3cccc(Cl)c32)CC1 | – |
| 0.631 | 63 | O=C(c1ccccc1)C1CCN(CCCn2cc(C(=O)C(F)(F)F)c3ccccc32)CC1 | – |
| 0.631 | 100 | COc1ccccc1C1CCN(CCCn2cc(C(=O)CC(C)C)c3ccccc32)CC1 | – |
| 0.794 | 90 | CCC(=O)c1cn(CCCN2CCC(Oc3ccc(F)cc3)CC2)c2ccccc12 | – |
| 0.794 | 66 | COc1ccc2c(C(C)=O)cn(CCCN3CCC(C(=O)c4ccccc4)CC3)c2c1 | – |
| 0.794 | 75 | O=C(c1cn(CCCN2CCC(Oc3ccc(F)cc3)CC2)c2ccccc12)C(F)(F)F | – |
| 1 | 92 | CCCCC1CCN(CCCn2cc(C(=O)CC)c3ccccc32)CC1 | – |
| 1 | 72 | COc1ccc2c(c1)c(C(C)=O)cn2CCCN1CCC(C(=O)c2ccccc2)CC1 | – |
| 1 | 95 | COc1ccc2c(c1)c(C(C)=O)cn2CCCN1CCC(Oc2ccccc2Cl)CC1 | – |
| 1.26 | 81 | CCCCC(=O)c1cn(CCCN2CCN(C(C)c3ccccc3)CC2)c2ccc(OC)cc12 (stereo not drawn) | – |
| 1.58 | 109 | CCC(=O)c1cn(CCCN2CCC(Cc3ccccc3)CC2)c2ccccc12 | – |
| 1.58 | 96 | CC(C)CC(=O)c1cn(CCCN2CCC(Oc3ccccc3Cl)CC2)c2ccccc12 | – |
| 1.58 | 82 | COc1ccccc1C1CCN(CCCn2cc(C(=O)C(F)(F)F)c3ccccc32)CC1 | – |
| 2 | 58 | COc1ccccc1C1CCN(CCCCn2cc(C(C)=O)c3ccccc32)CC1 | – |
| 2 | 69 | CC(=O)c1cn(CCCCN2CCN(C(C)c3ccccc3)CC2)c2ccccc12 (stereo not drawn) | – |
| 2 | 81 | O=C(c1cn(CCCN2CCC(Oc3ccccc3Cl)CC2)c2ccccc12)C(F)(F)F | – |
| 2 | 66 | COc1ccc2c(c1)c(C(C)=O)cn2CCCN1CCC(c2ccccc2OC)CC1 | – |
| 2 | 67 | CC(C)CC(=O)c1cn(CCCN2CCC(C(=O)c3ccccc3)CC2)c2ccccc12 | – |
| 2.51 | 78 | CC(=O)c1cn(CC(C)CN2CCC(c3nc4ccccc4s3)CC2)c2ccccc12 (stereo not drawn) | – |
| 2.51 | 57 | CCC(=O)c1cn(CCCN2CCN(C(C)c3ccccc3)CC2)c2ccccc12 (stereo not drawn) | – |
| 2.51 | 84 | CC(=O)CCc1cn(CCCN2CCC(c3nc4ccccc4s3)CC2)c2ccccc12 | – |
| 3.16 | 69 | CC(=O)c1cn(CC(O)CN2CCC(Oc3ccccc3Cl)CC2)c2ccccc12 (stereo not drawn) | – |
| 3.16 | 73 | COc1ccc2c(C(C)=O)cn(CCCN3CCC(C(C)c4ccccc4)CC3)c2c1 (stereo not drawn) | – |

Source: patent US20070213359A1 (ACADIA Pharmaceuticals Inc., priority 2005, published 2007)
